Measurements reported in patent publication US6841535B2, “Peptide-mediated transfection agents and methods of use” (Active Motif, priority 2000, dated 2005).

Tests used:
Format in all cases: cell-based
Jurkat T and WI 38 cells = test: Pep-2 delivery of p27(kip1), cell cycle arrest in G1 (FACS, BrDu); settings: Pep-2 alone
Procedure: The number of cells in the G1 phase was determined by BrDU incorporation.
The number of cells in the G1 phase was determined by FACs analysis.
p27(kip1) was expressed in E coli, and purified as a his-tagged protein. Pep-2/p27kip1 complexes were formed in PBS (500 μl of DMEM containing 50 nM of protein and 0.1 μM of Pep-2) and incubated for 30 min at 37° C. Jurkat T and WI 38 cells grown to 75% confluency were then overlaid with these preformed complexes. After 1 hr incubation at 37° C., fresh DMEM supplemented with 10% foetal calf serum was added to the cells, without removing the overlay of Pep-2/p27^Kip1, and cells were returned to the incubator for another 30 h. Experiments were performed on both non-synchronized and synchronized cells. The number of cells arrested in G1 was determined both by FACS analysis and BrDu incorporation.

[1] = tested on: HS-68 and NIH 3T3 cell lines; test: Protein delivery by vector peptides (GFP); settings: transfection of GFP; incubated with peptide at a molar ratio of 1:20; 1 h
Procedure: (§1) We evaluated the ability of peptides designed according to principles described herein, as well as variants thereof, to deliver peptides and proteins into HS-68 and NIH 3T3 cell lines. Peptide delivery was performed with a 32 mer peptide (peptide B), and in some cases a […] peptide (peptide A). The peptides were fluorescently labeled. Peptides (5.0×10^−8M or 5.0×10^−7M) were incubated with one micromolar vector peptide in cell culture medium in the absence of serum for 30 min. Cultured cells (0.5 to 1.0×10^6) were then overlaid with the preformed peptide/vector peptide complexes in 500 μL DMEM for one hour in the presence or absence of FCS. Complexes were formed prior to addition of FCS to avoid interactions between ep-vector and serum proteins. Following this transfection step, fresh DMEM supplemented with serum was added for another hour. Then cells were extensively washed, fixed and analyzed by fluorescence microscopy.
To investigate protein delivery we tested the delivery into cells of the fluorescent protein GFP. The protein was incubated with peptide at a molar ratio of 1:20, followed by overlay of the complex onto cultured cells. This was followed by incubation for 1 h. Then cells were extensively washed and fixed with formalin before observation.
(§2) The results of the experiments testing the transfection properties of the peptides are presented as a table in which the sequences are aligned for optimal comparison: […]

[2] = tested on: human fibroblastic cell line (HS-68) and Cos-7; test: Pep-2-mediated delivery of FITC-labeled peptides into cells
Procedure: (A) Pep-2-mediated delivery of Pep-A at 37 degrees C., (B) Pep-2-mediated delivery of Pep-B at 37 degrees C., (C) Pep-2-mediated delivery of Pep-A at 4 degrees C., (D) concentration dependence of Pep-2-mediated delivery of Pep-A. The efficiency of transfection was determined by counting fluorescent cells. Experiments were performed in the presence (dark bars) or absence (open bars) of serum and at 4 degrees C. (dashed bars).
We next evaluated the ability of Pep-2 to deliver peptides and LMW and HMW proteins into a human fibroblastic cell line (HS-68) and Cos-7. FITC-labeled Pep-A (51-mer) and Pep-B (32-mer) at a concentration of 5 10^−8 M were incubated with different concentrations of Pep-2 from 5 10^−8 M (ratio 1/1) to 2 10^−6 M (ratio 40/1), in serum-free cell culture medium for 30 minutes at 37° C. Cultured cells 0.5 to 1×10^6/35 mm^2 were then overlaid with the preformed Pep-2/peptide complexes for 30 minutes in the presence or absence of FCS. Complexes were formed prior to addition of FCS to avoid interactions between Pep-2 and serum proteins. Following this transfection step, fresh DMEM supplemented with serum was added to the cells for another 30 minutes, after which cells were extensively washed, and examined by fluorescence microscopy. […] Finally, we evaluated the effect of serum in the cell culture medium on the efficiency of peptide transfection.

[3] = tested on: human fibroblastic cell line (HS-68) and Cos-7; test: Pep-2-mediated delivery of GFP and β-Gal proteins into cells
Procedure: The efficiency of transfection was determined by counting fluorescent cells or blue stained cells. (A) Control of beta gal in the absence of Pep-2, (B) Pep-2 delivery of beta gal at 37 degrees C., (C) Pep-2 delivery of beta gal at 4 degrees C., (D) Pep-2 delivery of GFP at 37 degrees C. (E) concentration dependent Pep-2 delivery of GFP. Experiments were performed in the absence (open bars) or presence (dark bars) of serum.
We next evaluated the ability of Pep-2 to deliver peptides and LMW and HMW proteins into a human fibroblastic cell line (HS-68) and Cos-7. FITC-labeled Pep-A (51-mer) and Pep-B (32-mer) at a concentration of 5 10^−8 M were incubated with different concentrations of Pep-2 from 5 10^−8 M (ratio 1/1) to 2 10^−6 M (ratio 40/1), in serum-free cell culture medium for 30 minutes at 37° C. Cultured cells 0.5 to 1×10^6/35 mm^2 were then overlaid with the preformed Pep-2/peptide complexes for 30 minutes in the presence or absence of FCS. Complexes were formed prior to addition of FCS to avoid interactions between Pep-2 and serum proteins. Following this transfection step, fresh DMEM supplemented with serum was added to the cells for another 30 minutes, after which cells were extensively washed, and examined by fluorescence microscopy. […] Conversely, we observed a large decrease in the efficiency of transfection at a ratio greater than 30/1, which may be explained by either precipitation or aggregation of Pep-2/peptide complexes to the cell membrane. […] Finally, we evaluated the effect of serum in the cell culture medium on the efficiency of peptide transfection.
To investigate protein delivery we chose to monitor cell delivery of three very different types of proteins: 30 kDa GFP, 119 kDa β-Gal, and specific antibodies. […] Cells were then extensively washed prior to observation and the efficiency of protein delivery was determined by counting fluorescent cells or by monitoring enzymatic β-galactosidase activity by X-Gal staining. […]

[4] = tested on: HS-68 and NIH 3T3 cell lines; test: Peptide delivery by vector peptides (fluorescently labeled peptide B / peptide A); settings: transfection of fluorescently labeled peptide; one micromolar vector peptide; 1 h
Procedure: as §1, §2

[5] = tested on: HS-68 and NIH 3T3 cell lines; test: Drug delivery by vector peptides (ANS and Bis-ANS); settings: transfection of ANS and Bis-ANS; incubated with peptide at a molar ratio of 1:20; 1 h
Procedure: For investigation of drug delivery, we used the naphthalene derivatives ANS and Bis-ANS, which have intrinsic fluorescence. The drugs was incubated with peptide at a molar ratio of 1:20, followed by overlay of the complex onto cultured cells. This was followed by incubation for 1 h. Then cells were extensively washed and observed by microscopy.
as §2

[6] = tested on: human HS68, murine NIH 3T3 fibroblasts or cos cells; test: Cellular localization of Pep-2; settings: standard cell culture conditions; same at 4° C. or with okadaic acid
From the text: The rationale in the design of the novel peptide vector, Pep-2, for efficient protein delivery into cells was to satisfy two major requirements: the ability to cross cell membranes and high affinity for protein sequences. To this aim, we elaborated a 21 residue peptide, designated Pep-2 ([…]-cya; SEQ ID NO:7), consisting of three domains: (1) a hydrophobic Trp-rich motif containing five Trp-residues (KETWWETWWTEW (SEQ ID NO:32)), required for efficient targeting to the cell membrane and for forming hydrophobic interactions with proteins, (2) a hydrophilic Lys-rich domain (KKKRKV (SEQ ID NO:33)) derived from the NLS of SV40 large T antigen, required to improve intracellular delivery and solubility of the peptide vector, and (3) a spacer domain (Ser-Gln-Pro), separating the two domains mentioned above, containing a Pro residue, which improves the flexibility and the integrity of both the hydrophobic and the hydrophilic domains. Peptides were acetylated at their N-terminus and synthesized with a cysteamine group at their C-terminus, so as to enable coupling of fluorescent probes (for example, FITC), useful for cellular localization of the peptide. We first investigated the ability of Pep-2 to penetrate into cells and characterized its subcellular localization. […]

KETWWETWWTEWSQPKKKRKV [Pep-2]
effect on cell cycle progression (Jurkat T and WI 38 cells): no effect on cell cycle progression
Pro [1]: 5%
effect of serum (FCS 10%) on efficiency of peptide delivery [2]: not affected
cells with internalized fluorescent peptide localized to the nucleus ([2]; Pep-2/Pep-A molar ratio of 20/1): more than 90%
effect of 10% FCS on efficiency of protein delivery [3]: not affected
cells containing fluorescent GFP staining in their cytoplasm ([3]; 37 degrees C.): more than 80%
cells exhibiting strong and uniform β-Gal activity ([3]; X-Gal staining): All cells
Pep [4]: 5%
Drug [5]: 5%
subcellular localization [6]: nucleus
